Results taken from US20020111274A1, “1-alkyl-3-[1-(substituted phenyl) benzotriazol-6-yl] uracils” (BASF Aktiengesellschaft, priority 2000, published 2002).

Experiments:
Design in all cases: scale not given here
[1] = test system: GLXMAW Soybean, Williams; test: Preemergence herbicidal evaluation, GLXMAW; format: in vivo, Glycine max, (L.) Merr. cv Williams; settings: preemergence
In short: (§1)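 Visual ratings were taken four to five weeks after application. Before that, cups sown with seed in potting soil received a spray of compound dissolved in aqueous acetone, equivalent to about 0.013 to 0.800 kg/ha, and stood on greenhouse benches under conventional care.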

[2] = test system: GLXMAW Soybean, Williams; test: Postemergence herbicidal evaluation, GLXMAW; format: in vivo, Glycine max, (L.) Merr. cv Williams; settings: postemergence spray, rated about two-three weeks after treatment
In short: (§2)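 Plants are raised for roughly two weeks, then treated postemergence with compound dispersed in acetone/water (80/20) plus 1.0% seed oil adjuvant, at rates of about 0.006 kg to 0.400 kg per hectare. After greenhouse care, damage is scored two to three weeks later.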

[3] = test system: CHEAL Lambsquarters, Common; test: Preemergence herbicidal evaluation, CHEAL; format: in vivo, Chenopodium album, L.; settings: preemergence
In short: as §1

[4] = test system: TRZAWR Wheat, Winter, cv Riband; test: Postemergence herbicidal evaluation, TRZAWR; format: in vivo, Triticum aestivum; settings: postemergence spray, rated about two-three weeks after treatment
In short: as §2

[5] = test system: ZEAMX Corn, Field; test: Postemergence herbicidal evaluation, ZEAMX; format: in vivo, Zea mays, L. (Sammel-Bezeichnung); settings: postemergence spray, rated about two-three weeks after treatment
In short: as §2

[6] = test system: IPOHE Morningglory, Ivyleaf; test: Preemergence herbicidal evaluation, IPOHE; format: in vivo, Ipomoea hederacea, (L.) Jacq.; settings: preemergence
In short: as §1

[7] = test system: SETVI Foxtail, Green; test: Postemergence herbicidal evaluation, SETVI; format: in vivo, Setaria viridis, (L.) Beau; settings: postemergence spray, rated about two-three weeks after treatment
In short: as §2

[8] = test system: ZEAMX Corn, Field; test: Preemergence herbicidal evaluation, ZEAMX; format: in vivo, Zea mays, L. (Sammel-Bezeichnung); settings: preemergence
In short: as §1

[9] = test system: ECHOG Barnyardgrass; test: Preemergence herbicidal evaluation, ECHOG; format: in vivo, Echinochloa crus-galli, (L.) Beau; settings: preemergence
In short: as §1

[10] = test system: TRZAWR Wheat, Winter, cv Riband; test: Preemergence herbicidal evaluation, TRZAWR; format: in vivo, Triticum aestivum; settings: preemergence
In short: as §1

[11] = test system: CASOB Sicklepod; test: Postemergence herbicidal evaluation, CASOB; format: in vivo, Cassia obtusifolia, L.; settings: postemergence spray, rated about two-three weeks after treatment
In short: as §2

[12] = test system: ORYSAT Rice, Tebonnet; test: Preemergence herbicidal evaluation, ORYSAT; format: in vivo, Oryza sativa, (L.); settings: preemergence
In short: as §1

[13] = test system: ECHOG Barnyardgrass; test: Postemergence herbicidal evaluation, ECHOG; format: in vivo, Echinochloa crus-galli, (L.) Beau; settings: postemergence spray, rated about two-three weeks after treatment
In short: as §2

[14] = test system: AMBEL Ragweed, Common; test: Preemergence herbicidal evaluation, AMBEL; format: in vivo, Ambrosia artemisifolia, L.; settings: preemergence
In short: as §1

[15] = test system: IPOHE Morningglory, Ivyleaf; test: Postemergence herbicidal evaluation, IPOHE; format: in vivo, Ipomoea hederacea, (L.) Jacq.; settings: postemergence spray, rated about two-three weeks after treatment
In short: as §2

[16] = test system: ORYSAT Rice, Tebonnet; test: Postemergence herbicidal evaluation, ORYSAT; format: in vivo, Oryza sativa, (L.); settings: postemergence spray, rated about two-three weeks after treatment
In short: as §2

[17] = test system: ABUTH Velvetleaf; test: Postemergence herbicidal evaluation, ABUTH; format: in vivo, Abutilon theophrasti, Medic.; settings: postemergence spray, rated about two-three weeks after treatment
In short: as §2

[18] = test system: CHEAL Lambsquarters, Common; test: Postemergence herbicidal evaluation, CHEAL; format: in vivo, Chenopodium album, L.; settings: postemergence spray, rated about two-three weeks after treatment
In short: as §2

[19] = test system: AMBEL Ragweed, Common; test: Postemergence herbicidal evaluation, AMBEL; format: in vivo, Ambrosia artemisifolia, L.; settings: postemergence spray, rated about two-three weeks after treatment
In short: as §2

[20] = test system: ABUTH Velvetleaf; test: Preemergence herbicidal evaluation, ABUTH; format: in vivo, Abutilon theophrasti, Medic.; settings: preemergence
In short: as §1

[21] = test system: GALAP Galium; test: Preemergence herbicidal evaluation, GALAP; format: in vivo, Galium aparine; settings: preemergence
In short: as §1

[22] = test system: CASOB Sicklepod; test: Preemergence herbicidal evaluation, CASOB; format: in vivo, Cassia obtusifolia, L.; settings: preemergence
In short: as §1

[23] = test system: SETVI Foxtail, Green; test: Preemergence herbicidal evaluation, SETVI; format: in vivo, Setaria viridis, (L.) Beau; settings: preemergence
In short: as §1

[24] = test system: GALAP Galium; test: Postemergence herbicidal evaluation, GALAP; format: in vivo, Galium aparine; settings: postemergence spray, rated about two-three weeks after treatment
In short: as §2

Cc1cc(O)ccc1-n1nnc2cc(F)c(-n3c(=O)cc(C(F)(F)F)n(C)c3=O)cc21 [Example 33]
9.0: CHEAL herbicidal rating ([3]; rate 0.016 kg/ha) | CHEAL herbicidal rating ([3]; rate 0.032 kg/ha) | CHEAL herbicidal rating ([3]; rate 0.062 kg/ha) | CHEAL herbicidal rating ([3]; rate 0.125 kg/ha) | Postemergence herbicidal rating IPOHE ([15]; 0.062 kg/ha) | ABUTH herbicidal rating ([20]; rate 0.125 kg/ha)
3.0: Postemergence herbicidal rating ZEAMX ([5]; 0.008 kg/ha) | Postemergence herbicidal rating ZEAMX ([5]; 0.016 kg/ha) | Postemergence herbicidal rating IPOHE ([15]; 0.032 kg/ha) | Postemergence herbicidal rating ABUTH ([17]; 0.016 kg/ha) | Postemergence herbicidal rating ABUTH ([17]; 0.032 kg/ha)
0.0: GLXMAW herbicidal rating ([1]; rate 0.016 kg/ha) | GLXMAW herbicidal rating ([1]; rate 0.032 kg/ha) | GLXMAW herbicidal rating ([1]; rate 0.062 kg/ha) | GLXMAW herbicidal rating ([1]; rate 0.125 kg/ha) | IPOHE herbicidal rating ([6]; rate 0.016 kg/ha) | IPOHE herbicidal rating ([6]; rate 0.032 kg/ha) | IPOHE herbicidal rating ([6]; rate 0.062 kg/ha) | IPOHE herbicidal rating ([6]; rate 0.125 kg/ha) | Postemergence herbicidal rating SETVI ([7]; 0.008 kg/ha) | Postemergence herbicidal rating SETVI ([7]; 0.016 kg/ha) | Postemergence herbicidal rating SETVI ([7]; 0.032 kg/ha) | Postemergence herbicidal rating SETVI ([7]; 0.062 kg/ha) | ZEAMX herbicidal rating ([8]; rate 0.016 kg/ha) | ZEAMX herbicidal rating ([8]; rate 0.032 kg/ha) | ZEAMX herbicidal rating ([8]; rate 0.062 kg/ha) | ZEAMX herbicidal rating ([8]; rate 0.125 kg/ha) | ECHCG herbicidal rating ([9]; rate 0.016 kg/ha) | ECHCG herbicidal rating ([9]; rate 0.032 kg/ha) | ECHCG herbicidal rating ([9]; rate 0.062 kg/ha) | ECHCG herbicidal rating ([9]; rate 0.125 kg/ha) | TRZAWR herbicidal rating ([10]; rate 0.016 kg/ha) | TRZAWR herbicidal rating ([10]; rate 0.032 kg/ha) | TRZAWR herbicidal rating ([10]; rate 0.062 kg/ha) | TRZAWR herbicidal rating ([10]; rate 0.125 kg/ha) | Postemergence herbicidal rating CASOB ([11]; 0.008 kg/ha) | Postemergence herbicidal rating CASOB ([11]; 0.016 kg/ha) | Postemergence herbicidal rating CASOB ([11]; 0.032 kg/ha) | Postemergence herbicidal rating CASOB ([11]; 0.062 kg/ha) | ORYSAT herbicidal rating ([12]; rate 0.016 kg/ha) | ORYSAT herbicidal rating ([12]; rate 0.032 kg/ha) | ORYSAT herbicidal rating ([12]; rate 0.062 kg/ha) | ORYSAT herbicidal rating ([12]; rate 0.125 kg/ha) | Postemergence herbicidal rating ECHCG ([13]; 0.008 kg/ha) | Postemergence herbicidal rating ECHCG ([13]; 0.016 kg/ha) | Postemergence herbicidal rating ECHCG ([13]; 0.032 kg/ha) | Postemergence herbicidal rating ECHCG ([13]; 0.062 kg/ha) | AMBEL herbicidal rating ([14]; rate 0.016 kg/ha) | AMBEL herbicidal rating ([14]; rate 0.032 kg/ha) | AMBEL herbicidal rating ([14]; rate 0.062 kg/ha) | AMBEL herbicidal rating ([14]; rate 0.125 kg/ha) | Postemergence herbicidal rating IPOHE ([15]; 0.008 kg/ha) | Postemergence herbicidal rating ORYSAT ([16]; 0.008 kg/ha) | Postemergence herbicidal rating ORYSAT ([16]; 0.016 kg/ha) | Postemergence herbicidal rating ABUTH ([17]; 0.008 kg/ha) | Postemergence herbicidal rating CHEAL ([18]; 0.008 kg/ha) | Postemergence herbicidal rating CHEAL ([18]; 0.016 kg/ha) | Postemergence herbicidal rating CHEAL ([18]; 0.032 kg/ha) | Postemergence herbicidal rating AMBEL ([19]; 0.008 kg/ha) | Postemergence herbicidal rating AMBEL ([19]; 0.016 kg/ha) | Postemergence herbicidal rating AMBEL ([19]; 0.032 kg/ha) | Postemergence herbicidal rating AMBEL ([19]; 0.062 kg/ha) | ABUTH herbicidal rating ([20]; rate 0.016 kg/ha) | ABUTH herbicidal rating ([20]; rate 0.032 kg/ha) | ABUTH herbicidal rating ([20]; rate 0.062 kg/ha) | GALAP herbicidal rating ([21]; rate 0.016 kg/ha) | GALAP herbicidal rating ([21]; rate 0.032 kg/ha) | GALAP herbicidal rating ([21]; rate 0.062 kg/ha) | GALAP herbicidal rating ([21]; rate 0.125 kg/ha) | CASOB herbicidal rating ([22]; rate 0.016 kg/ha) | CASOB herbicidal rating ([22]; rate 0.032 kg/ha) | CASOB herbicidal rating ([22]; rate 0.062 kg/ha) | CASOB herbicidal rating ([22]; rate 0.125 kg/ha) | SETVI herbicidal rating ([23]; rate 0.016 kg/ha) | SETVI herbicidal rating ([23]; rate 0.032 kg/ha) | SETVI herbicidal rating ([23]; rate 0.062 kg/ha) | SETVI herbicidal rating ([23]; rate 0.125 kg/ha) | Postemergence herbicidal rating GALAP ([24]; 0.008 kg/ha) | Postemergence herbicidal rating GALAP ([24]; 0.016 kg/ha) | Postemergence herbicidal rating GALAP ([24]; 0.032 kg/ha) | Postemergence herbicidal rating GALAP ([24]; 0.062 kg/ha)
0.5: Postemergence herbicidal rating TRZAWR ([4]; 0.008 kg/ha) | Postemergence herbicidal rating ORYSAT ([16]; 0.032 kg/ha)
2.5: Postemergence herbicidal rating TRZAWR ([4]; 0.062 kg/ha)
1.5: Postemergence herbicidal rating GLXMAW ([2]; 0.008 kg/ha)
3.5: Postemergence herbicidal rating GLXMAW ([2]; 0.016 kg/ha) | Postemergence herbicidal rating ZEAMX ([5]; 0.032 kg/ha)
2.0: Postemergence herbicidal rating TRZAWR ([4]; 0.032 kg/ha) | Postemergence herbicidal rating IPOHE ([15]; 0.016 kg/ha) | Postemergence herbicidal rating ORYSAT ([16]; 0.062 kg/ha) | Postemergence herbicidal rating CHEAL ([18]; 0.062 kg/ha)
1.0: Postemergence herbicidal rating TRZAWR ([4]; 0.016 kg/ha)
4.0: Postemergence herbicidal rating GLXMAW ([2]; 0.032 kg/ha) | Postemergence herbicidal rating ZEAMX ([5]; 0.062 kg/ha)
5.0: Postemergence herbicidal rating GLXMAW ([2]; 0.062 kg/ha) | Postemergence herbicidal rating ABUTH ([17]; 0.062 kg/ha)
